Assay results as given in patent US9523082B2, “Firefly luciferase” (priority 2014, dated 2016).
Where two headings read alike, the source gives them in different places.

Test system: SP2 luciferase (Luciola sp2 firefly luciferase), wild type, SEQ ID NO: 1
Test: Km of SP2 luciferase for D-luciferin and ATP (luminescence kinetics, Michaelis-Menten fit)
Type: biochemical, Luciola sp2 (Malaysian firefly)
Conditions: for Km: 0.1 M Tris-HCl pH 8.0, MgSO4 8 mM in injected solution
Protocol: The measurements were carried out ten times for each sample, and the average of absorbency was used for the calculation.
A solution of 0.1 M Tris-HCl (pH 8.0) containing each of the purified luciferase, 4 mM of ATP, and 8 mM of MgSO4 was connected to the standard pump of the luminometer, and the measurements was carried out at the same time as addition of 50 μl of the solution to the well. A Luminescensor (ATTO) was used for the measurements. Measurements were repeated 3 times for each luciferin concentration.
The peak intensity of the obtained photo count value was plotted with respect to luciferin concentration S, defining the initial rate as V. The plots were subjected to curve fitting of Michaelis Menten type, thereby giving Km values. The curve fitting was performed by a nonlinear least-squares method, and the search of the parameter was performed by a Newton method.
Under various ATP concentrations, the luminous intensity of the obtained luciferase was measured. Based on the results, Km values with respect to ATP was determined.
Various 12 types of ATP solutions were prepared by adding ATP to 0.1 M Tris-HCl (pH 8.0). These solutions contain ATP at final concentration of 5, 10, 20, 40, 80, 160, 320, 480, 640, 800, 1280, 1600, or 1920 μM. These ATP solutions were each injected into 96-hole in a microplate at a volume of 50 μl. […] Measurement was repeated 3 times for each ATP concentration.
The peak intensities of the obtained photon count value were plotted with respect to ATP concentration S, with an initial rate V. The plots were subjected to curve fitting of Michaelis Menten type, thereby giving Km value. The curve fitting was performed by a nonlinear least-squares method, and the search of the parameter was performed by a Newton method.

| Structure (SMILES) | Km (D-luciferin 1 mM, read-out: Km ATP) [µM] | Km with respect to ATP, compared with known luciferase (FIG. 2) (comparison in words) | Km with respect to D-luciferin, compared with known luciferase (FIG. 2) (comparison in words) | Km (read-out: Km D-luciferin, ATP 4 mM) [µM] |
| --- | --- | --- | --- | --- |
| Nc1ncnc2c1ncn2[C@@H]1O[C@H](COP(=O)(O)OP(=O)(O)OP(=O)(O)O)[C@@H](O)[C@H]1O [ATP] | 188 | higher Km values | – | – |
| O=C(O)[C@H]1CSC(c2nc3ccc(O)cc3s2)=N1 [D-luciferin] | – | – | higher Km values | 4.25 |
